One assay deals with T1, PP2A (Homo sapiens, UniProt P67775).
T1 construct: endogenous in cells; host or cells: H524 (human SCLC) cells
The experiment in a line: PP2A immunoprecipitation Ser/Thr phosphatase activity assay in treated H524 cells. The conditions noted are these: LB-100 5 μM, 24 h, H524 cells. In kind it is cell-based. On the procedure:
FIGS. 1A-IL depict the effects of LB-100 on PP2A-A expression in SCLC tumors and cells. […] A Mann-Whitney U test was used for comparison between the normal and SCLC samples. FIG. 1B: IHC for PP2A was conducted on TMA tissue sections and images were captured at 4× or 20× using a 3D-Histech PANNORAMIC SCAN whole slide scanner (3D-Histech, Budapest, Hungary). […] TMAs were scored in normal (n=24) and tumor (n=79) cores on a scale from 0 (no staining/no protein expression) to 3+(strong staining/high protein expression). FIG. 1C: Summary bar graph of the average PP2A subunit staining. IHC staining intensity of normal and tumor cores. There was a statistically significant difference between normal and tumor tissue (p<0.001). FIG. 1D: In order to compare the expression of PP2A subunits A and C, cell lysates from seven SCLC cell lines and HBEC 3KT (non-malignant cell line) were subjected to western blotting. FIG. 1E: PP2A activity was determined using a serine/threonine phosphatase activity assay (Millipore) after 24 h exposure to cantharidin (10 μM) and LB-100 (5 μM). […] LB-100 alone or in combination with carboplatin inhibited proliferation and colony formation in SCLC cells. The Cell Counting Kit-8 assay detected cell H524 and H69 cell viability. […] FIGS. 1I-1K: Graphs depict the mean+SEM of percent viability for cells (n=3). […]

A further assay concerns H524 and H69 cells. The assay is described as follows: Whole cell Pt accumulation, ICP-MS. In kind it is cell-based. The conditions noted are these: LB100 pretreatment then carboplatin 4 hours, versus carboplatin alone. On the procedure:
FIGS. 3A-3H depict SCLC cell invasion through HUVEC monolayer. FIGS. 3A-3D: Graphical representation of H524/H69 cell ability to disrupt a confluent HUVEC monolayer using an electrical substrate-impedance sensing system. Arrows indicate time point when cells were added. Inserts show mean values and SD for each group after 20 h of drug treatment. After treatment, cell viability was counted using an Auto T4 Cell Counter (Nexcelom Cellometer). Cell viability was 90-95% for drug-treated groups (n=2). p<0.001 (***) for control (untreated cells) vs. drug combination (LB100/carboplatin). Whole cell Pt accumulation. Graphical representation of LB-100 effect on platinum uptake by SCLC cells. […]
To this end, platinum (Pt) levels were measured in H524 and H69 cells using Inductively Coupled Plasma Mass Spectrometry (ICP-MS). […]
Samples were prepared and analyzed for Pt concentrations at the Isotoparium (California Institute of Technology), using precleaned Teflon beakers (PFA), Optima grade reagents (Fisher Chemical) and 18.2 MΩ Milli-Q water. […] All samples were analyzed using an iCAP RQ (ThermoFisher, Waltham, Mass.) ICP-MS and an SC-2 DX autosampler (Elemental Scientific, Omaha, Nebr.). […] A Pt standard curve (0.001, 0.01, 0.1, 1.0 ppb, Spex Certiprep Assurance, Lot #24-140PTM) was created using the HNO3 stock solution and measured for sample calibration. […]

The structures appear in SMILES notation.

The values below come from patent US20230065158A1, “OXABICYCLOHEPTANES FOR TREATMENT OF SMALL CELL LUNG CANCER” (Lixte Biotechnology, Inc., priority 2021, published 2023).

T1 sequence (P67775 whole entry): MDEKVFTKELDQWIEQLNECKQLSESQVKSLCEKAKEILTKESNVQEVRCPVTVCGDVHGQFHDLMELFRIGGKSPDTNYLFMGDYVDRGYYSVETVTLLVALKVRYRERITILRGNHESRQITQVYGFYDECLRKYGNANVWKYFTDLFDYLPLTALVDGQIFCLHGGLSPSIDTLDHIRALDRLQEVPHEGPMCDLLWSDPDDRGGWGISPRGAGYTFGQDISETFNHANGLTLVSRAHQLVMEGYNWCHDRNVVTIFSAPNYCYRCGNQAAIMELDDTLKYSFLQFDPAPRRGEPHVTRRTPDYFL
T1 sequence (P30153 whole entry partner): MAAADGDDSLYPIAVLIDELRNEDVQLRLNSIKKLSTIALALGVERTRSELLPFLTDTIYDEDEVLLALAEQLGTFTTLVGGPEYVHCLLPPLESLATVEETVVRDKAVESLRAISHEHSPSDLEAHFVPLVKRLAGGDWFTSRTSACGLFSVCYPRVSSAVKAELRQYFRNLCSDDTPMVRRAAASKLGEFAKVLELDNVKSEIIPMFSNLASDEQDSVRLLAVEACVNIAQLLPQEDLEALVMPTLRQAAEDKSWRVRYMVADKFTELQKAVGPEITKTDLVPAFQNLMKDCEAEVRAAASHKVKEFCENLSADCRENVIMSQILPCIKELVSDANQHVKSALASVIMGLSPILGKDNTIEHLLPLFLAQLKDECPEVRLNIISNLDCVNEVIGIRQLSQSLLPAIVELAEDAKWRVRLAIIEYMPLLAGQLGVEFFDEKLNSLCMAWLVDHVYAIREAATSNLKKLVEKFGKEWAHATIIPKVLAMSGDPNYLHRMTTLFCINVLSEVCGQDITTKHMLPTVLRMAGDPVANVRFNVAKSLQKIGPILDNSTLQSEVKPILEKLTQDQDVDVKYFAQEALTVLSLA

With `C[NH+]1CCN(C(=O)C2C(C(=O)O)[C@H]3CC[C@@H]2O3)CC1` (stereo in doubt) [LB-100, 3-[(4-Methylpiperazin-1-yl)carbonyl]-7-oxabicyclo[2.2.1]heptane-2-carboxylic acid], the “phosphatase activity inhibited to” value at PP2A is reported as 65%. Moreover, the “Pt level in cells” value with H524 and H69 cells is listed as “enhanced the uptake of Pt”.
